The conditions of series [1]: cited from earlier work.
For series [2] the following is noted: organic acid, octanol/water; cited from earlier work.
For series [3] the following is noted: 1,000 ppm nicotine, 2 equivalents of octanoic acid (sodium octanoate), pH 6.5.
Procedure: A pH probe was submerged in the resulting liquid and HCl (0.05 M) was added under stirring to bring the solution to pH 6.5. The flask weight was then brought up to 100 grams with RO water. […] Partitioning was performed by removing aliquots (10 mL) of each solution and placing into separate 20 ml scintillation vials. Octanol (10 ml) was added to each vial. The vials were then placed on a wrist action shaker for 20 minutes. Following agitation, the vials were allowed to separate for 30 min. and an aliquot (100 μl) of each octanol layer was removed and diluted with 900 μl octanol in 2 mL GC/MS vials.
The conditions of series [4]: 1,000 ppm nicotine, pH 6.5.
In another series the test system is human buccal tissue. The note with it: nicotine solution at pH=6 relative to pH 8.1; cited from earlier work.
The conditions of series [5]: cited from earlier work. This is another data set of the same source.

One may read the logP as the decadic logarithm of the partition coefficient of the neutral form, usually between octanol and water.

Read-outs that look alike come from different tables or passages of the source.

Take `CC(/C=C/C=C(C)/C=C/C(=O)O)=C\C=C\C=C(C)\C=C\C=C(C)\C=C\C(=O)O` (stereo in doubt) [norbixin, (2E,4E,6E,8E,10E,12E,14E,16E,18E)-4,8,13,17-tetramethylicosa-2,4,6,8,10,12,14,16,18-nonaenedioic acid]: in series [1], the solubility in water result was “water soluble”. Take `CCCCCCCS(=O)(=O)O` [1-heptanesulfonic acid]: the logP in series [2] is listed as 0.88. As for `O=C(O)c1ccccc1` [benzoic acid], the concentration in octanol (1000 ppm nicotine in unbuffered water with 1 molar equivalent of sodium benzoate, 100 μl octanol aliquot diluted in 900 μl) was 19.2 ppm. In addition, the “benzoic acid molarity in octanol in terms of nicotine mass” value (1000 ppm nicotine, 1 molar equivalent sodium benzoate) is given as 25.5 ppm nicotine. As for `COC(=O)/C=C/C(C)=C\C=C\C(C)=C\C=C\C=C(C)\C=C\C=C(C)\C=C\C(=O)O` [bixin, (2E,4E,6E,8E,10E,12E,14E,16Z,18E)-20-methoxy-4,8,13,17-tetramethyl-20-oxoicosa-2,4,6,8,10,12,14,16,18-nonaenoic acid], the solubility in water entry in series [1] is “insoluble in water”. In the case of `CC(=O)CCC(=O)O` [levulinic acid], the logP in series [2] is given as −0.49. Consider `CC(C)[C@@H]1CC[C@@H](C)C[C@H]1OC(=O)CCC(=O)O` [monomenthyl succinate], for which, in series [2], the logP is reported as 3. As for `CN1CCCC1c1cccnc1` (centres unmarked) [nicotine], the “nicotine partitioned into octanol” value in series [3] is reported as about 67%. The “% nicotine in octanol” value in series [4] (10 eq. benzoic acid (sodium benzoate)) is about 52%; in series [4] (10 eq. octanoic acid (sodium octanoate)), about 75%. The “factor by which diffusion rate is reduced” value in the series on human buccal tissue was about 7. The “log Ka1” value in series [5] (pyridine ring nitrogen) was 3.41. Also, the “log Ka2” value in series [5] (pyrrolidine ring nitrogen) is on record as 8.02. For `CCCCCCCC(=O)O` [octanoic acid], the logP in series [2] is 3.05. Turning to `O=C(O)C(O)C(O)C(=O)O` (centres unmarked) [tartaric acid], in series [2], the logP is recorded as −1.9. ethyl benzoic acid: the log partition coefficient (logP) in series [2] is 2.9. As to isopropyl benzoic acid, the logP in series [2] is listed as 3.5.

(Values after US20220369688A1, “ORAL COMPOSITIONS AND RELATED METHODS FOR REDUCING THROAT IRRITATION” (NICOVENTURES TRADING LIMITED, priority 2021, published 2022).)
